Source: US20110110923A1, “FISH ASSAY FOR EML4 AND ALK FUSION IN LUNG CANCER” (The Brigham and Women's Hospital, Inc., priority 2008, published 2011)
Entries after “also recorded” stand apart in the source; their conditions may differ.

Experiments:
ALK kinase = ALK kinase (Homo sapiens, UniProt Q9UM73); conditions: initial studies, Li et al.; read-out: IC50 (ALK inhibitors); cited from earlier work
[1] = system: EML4-ALK fusion transformed Ba/F3 models; conditions: original study describing the EML4-ALK fusion gene; cited from earlier work
[2] = in vivo; cited from earlier work
Karpas 299 cells = conditions: NPM-ALK positive lymphoma cells; cited from earlier work
H3122 cell line = assay: Apoptosis by FACS (sub G1) and Western blot for cleaved PARP, H3122; assay type: cell-based, human; conditions: H3122, 0.1 μM, 72 h
Procedure: (§1) The supernatant was used for subsequent procedures. […] Immunoblotting was performed according to the antibody manufacturers' recommendations. […] Total ERK1/2 and phospho-ERK1/2 (pT185/pY187) antibodies were purchased from Biosource International (Camarillo, Calif.).
Cells were collected and fixed in 40% ethanol for at least 1 hour (or until ready for the experiment) at 4° C. The fixed cells were treated with 0.5 mL of […] RNase A for 45 minutes at 37° C. and stained with […] propidium iodide (in 38 mM sodium citrate) for at least 30 minutes at room temperature in the dark. The stained cells were then analyzed for DNA content in a Becton Dickinson fluorescence-activated cell sorter using both ModFit (Verity Software House, Topsham, Me.) and CellQuest (Becton Dickinson, San Jose, Calif.) programs.

[3] = system: Akt, STAT3 and ERK 1/2 phosphorylation in H3122; assay: Western blot of downstream signalling, H3122; assay type: cell-based, human; conditions: H3122, 0.1 μM, 6 hours
Procedure: as §1

[4] = system: Akt, STAT3 and ERK 1/2 phosphorylation in DFCI032; assay: Western blot of downstream signalling, DFCI032; assay type: cell-based, human; conditions: DFCI032, 0.1 μM, 6 hours
Procedure: as §1

[5] = system: other cell lines (H2228, DFCI032, PC-9, A549); assay: Growth arrest / apoptosis in the other NSCLC cell lines; assay type: cell-based, human; conditions: other cell lines than H3122
Procedure: (§2) Growth and inhibition of growth was assessed by methoxy-tetrazolium salt (MTS) assay. This assay, a colorimetric method for determining the number of viable cells, is based on the bioreduction of 3-(4,5-dimethylthiazol-2-yl)-5-(3-carboxymethoxyphenyl)-2-(4-sulfophenyl)-2H-tetrazolium (MTS) by cells to a formazan product that is soluble in cell culture medium, can be detected spectrophotometrically. NSCLC cells were exposed to treatment for 72 hours and the number of cells used per experiment determined empirically. All experimental points were set up in six to twelve wells and all experiments were repeated at least three times. […] The curves were fitted using a non-linear regression model with a sigmoidal dose response.
as §1
Cells were collected and fixed in 40% ethanol for at least 1 hour (or until ready for the experiment) at 4° C. […] The stained cells were then analyzed for DNA content in a Becton Dickinson fluorescence-activated cell sorter using both ModFit (Verity Software House, Topsham, Me.) and CellQuest (Becton Dickinson, San Jose, Calif.) programs.

[6] = system: PC-9 cell line (EGFR delE746_A750); assay: MTS cell growth assay, PC-9; assay type: cell-based, human; conditions: PC-9, 72 hours
Text: All experimental points were set up in six to twelve wells and all experiments were repeated at least three times. […] The curves were fitted using a non-linear regression model with a sigmoidal dose response.

[7] = system: H3122 cell line (EML4-ALK variant 1); assay: MTS cell growth assay, H3122; assay type: cell-based; conditions: Homo sapiens, NCI-H3122, read-out: IC50, growth inhibition, H3122, 72 hours
Procedure: as §2

[8] = system: H2228 cell line (EML4-ALK variant 3); assay: MTS cell growth assay, H2228; assay type: cell-based; conditions: Homo sapiens, NCI-H2228, read-out: IC50, growth inhibition, H2228, 72 hours
Procedure: as §2

[9] = system: DFCI032 cell line (EML4-ALK variant 1); assay: MTS cell growth assay, DFCI032; assay type: cell-based; conditions: Homo sapiens, read-out: IC50, growth inhibition, DFCI032, 72 hours
Procedure: as §2

[10] = system: A549 cell line (K-Ras G12S); assay: MTS cell growth assay, A549; assay type: cell-based, human; conditions: A549, 72 hours
Procedure: as §2

[11] = system: Akt, STAT3 and ERK 1/2 phosphorylation in H2228; assay: Western blot of downstream signalling, H2228; assay type: cell-based, human; conditions: H2228, 0.1 μM, 6 hours
Procedure: as §1

[12] = system: Akt, STAT3 and ERK 1/2 phosphorylation in PC-9; assay: Western blot of downstream signalling, PC-9; assay type: cell-based, human; conditions: PC-9, 0.1 μM, 6 hours
Procedure: as §1

Chain of ALK kinase (Q9UM73 19-1620): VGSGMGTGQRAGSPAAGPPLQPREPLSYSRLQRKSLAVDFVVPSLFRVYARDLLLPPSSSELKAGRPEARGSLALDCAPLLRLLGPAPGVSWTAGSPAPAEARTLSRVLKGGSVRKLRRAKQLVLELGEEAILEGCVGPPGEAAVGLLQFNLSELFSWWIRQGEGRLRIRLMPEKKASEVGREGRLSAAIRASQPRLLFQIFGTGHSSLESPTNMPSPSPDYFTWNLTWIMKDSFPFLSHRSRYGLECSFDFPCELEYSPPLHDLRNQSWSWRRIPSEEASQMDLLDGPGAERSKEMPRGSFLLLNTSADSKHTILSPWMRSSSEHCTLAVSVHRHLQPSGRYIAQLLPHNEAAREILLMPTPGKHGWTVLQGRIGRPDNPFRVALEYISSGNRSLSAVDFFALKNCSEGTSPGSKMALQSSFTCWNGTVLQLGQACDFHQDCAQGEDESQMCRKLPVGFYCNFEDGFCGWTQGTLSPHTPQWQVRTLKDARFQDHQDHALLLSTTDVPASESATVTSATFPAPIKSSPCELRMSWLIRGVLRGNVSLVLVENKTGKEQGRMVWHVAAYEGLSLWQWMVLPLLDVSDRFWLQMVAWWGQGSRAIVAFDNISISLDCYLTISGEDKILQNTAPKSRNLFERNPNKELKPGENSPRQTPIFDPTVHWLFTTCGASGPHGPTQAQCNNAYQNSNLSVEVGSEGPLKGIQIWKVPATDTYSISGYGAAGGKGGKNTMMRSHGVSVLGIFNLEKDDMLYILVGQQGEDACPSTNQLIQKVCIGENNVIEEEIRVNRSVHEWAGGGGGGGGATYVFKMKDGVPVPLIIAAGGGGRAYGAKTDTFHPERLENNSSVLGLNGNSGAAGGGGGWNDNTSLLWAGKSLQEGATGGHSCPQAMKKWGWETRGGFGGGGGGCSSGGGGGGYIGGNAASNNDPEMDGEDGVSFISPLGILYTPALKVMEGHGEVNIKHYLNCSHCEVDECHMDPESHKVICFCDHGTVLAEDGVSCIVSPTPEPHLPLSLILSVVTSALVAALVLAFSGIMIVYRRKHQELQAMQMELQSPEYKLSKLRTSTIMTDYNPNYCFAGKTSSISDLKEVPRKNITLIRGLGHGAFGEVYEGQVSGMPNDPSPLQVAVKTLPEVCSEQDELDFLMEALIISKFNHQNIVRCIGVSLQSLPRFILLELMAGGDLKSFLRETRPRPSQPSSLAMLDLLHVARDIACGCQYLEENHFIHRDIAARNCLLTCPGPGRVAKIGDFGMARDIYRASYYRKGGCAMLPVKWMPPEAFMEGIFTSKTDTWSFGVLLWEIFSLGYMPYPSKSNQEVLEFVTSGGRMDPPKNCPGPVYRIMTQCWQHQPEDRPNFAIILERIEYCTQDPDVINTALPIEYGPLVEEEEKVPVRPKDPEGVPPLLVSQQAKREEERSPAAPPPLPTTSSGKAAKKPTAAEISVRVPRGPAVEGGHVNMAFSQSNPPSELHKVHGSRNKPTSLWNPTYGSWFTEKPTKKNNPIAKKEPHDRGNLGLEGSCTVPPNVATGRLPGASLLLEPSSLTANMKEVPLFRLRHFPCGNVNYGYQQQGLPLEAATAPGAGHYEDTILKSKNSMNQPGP

| Structure (SMILES) | IC50 (ALK kinase) | growth inhibition [1] | bioavailability [2] | IC50 (Karpas 299 cells) | 89 kDa cleaved PARP product (Western blot) (H3122 cell line) | apoptosis (FACS sub G1 fraction / cleaved PARP) (H3122 cell line) | apoptosis (FACS sub G1 fraction / cleaved PARP) (H3122 cell line; listed as TAE-684) | Akt, STAT3 and ERK 1/2 phosphorylation [3] | Akt, STAT3 and ERK 1/2 phosphorylation [4] | growth arrest or apoptosis [5] | growth: resistance to the inhibitor [6] | IC50 [7] | IC50 [8] | IC50 [9] | growth: resistance to the inhibitor [10] | Akt, STAT3 and ERK 1/2 phosphorylation [11] | Akt, STAT3 and ERK 1/2 phosphorylation [12] |
| --- | --- | --- | --- | --- | --- | --- | --- | --- | --- | --- | --- | --- | --- | --- | --- | --- | --- |
| COc1cc2ncnc(Nc3ccc(O)c(Br)c3)c2cc1OC [WHI-P154] | ~5 µM | growth inhibition |  |  |  |  |  |  |  |  |  |  |  |  |  |  |  |
| C[C@@H](Oc1cc(-c2cnn(C3CCNCC3)c2)cnc1N)c1c(Cl)ccc(F)c1Cl [PF-02341066] |  |  | good | 26 nM |  |  |  |  |  |  |  |  |  |  |  |  |  |
| COc1cc(N2CCC(N3CCN(C)CC3)CC2)ccc1Nc1ncc(Cl)c(Nc2ccccc2S(=O)(=O)C(C)C)n1 [NVP-TAE684] |  |  | good | 2 to 5 nM | observed | significant apoptosis | Significant apoptosis | substantial inhibition; also recorded: decrease | unchanged; also recorded: no inhibition | No growth arrest or apoptosis | resistant | ~10 nM | 1 to 10 µM | 1 to 10 µM | resistant | some but not complete inhibition; also recorded: only partial inhibition; also recorded: decrease | unchanged |
